In patent US20210395210A1, “INHIBITION OF BACTERIAL CHAPERONIN SYSTEMS” (THE TRUSTEES OF INDIANA UNIVERSITY, priority 2018, published 2021):

Molecular target: T1, native MDH (Sus scrofa, UniProt P00346)
T1 construct: soluble pig heart MDH from Roche, product #10127248001; purchased Roche 10127248001; host or cells: pig heart
T1 sequence (P00346 25-338): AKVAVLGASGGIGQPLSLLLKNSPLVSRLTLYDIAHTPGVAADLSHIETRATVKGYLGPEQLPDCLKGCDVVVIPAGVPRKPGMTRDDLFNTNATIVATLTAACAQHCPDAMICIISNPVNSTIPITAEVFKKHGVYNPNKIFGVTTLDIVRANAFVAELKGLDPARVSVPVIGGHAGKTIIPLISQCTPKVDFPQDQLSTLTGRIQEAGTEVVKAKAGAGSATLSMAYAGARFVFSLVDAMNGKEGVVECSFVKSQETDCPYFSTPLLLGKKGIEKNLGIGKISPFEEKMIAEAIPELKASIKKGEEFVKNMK
Assay: Counter-screen for inhibition of native MDH enzymatic activity
Format: biochemical, pig
Protocol: Reagent Preparations & Assay Protocol: This assay was performed as described above for the GroEL/ES-dMDH refolding assay; however, the assay protocol differed in the sequence of compound addition to the assay plates. The refolding reactions were allowed to proceed for 45 min at 37° C. in the absence of test compounds (complete refolding of MDH occurs), then quenched with the EDTA stock. Compounds were then pin-transferred into the plates after the EDTA quenching step; thus, compounds effects are only possible by inhibiting the fully-refolded MDH reporter substrate. […] A340 nm measurements were recorded at 0.5 minutes (start point) and at successive time points until the amount of NADH consumed reached ˜90% (end point, generally between 20-35 minutes). Compounds were tested in 8-point, 3-fold dilution series (62.5 μM to 29 nM during the reporter reaction) in clear, flat-bottom 384-well microtiter plates. DMSO was used as a negative control, and previously discovered native MDH inhibitors were used as positive controls. […] Results presented represent the averages of IC50 values obtained from at least quadriplicate (duplicate of duplicate) replicates.

For `O=C(Nc1ccccc1)c1ccccc1` [Compound 28, N-Phenylbenzamide], the IC50 (Biochemical Assay IC50 Native MDH Reporter) was over 63 µM and the IC50 (log(IC50) Native MDH Reporter, log of IC50 (μM scale), with standard deviation) was over 63.1 µM.
